# According to patent publication US20090264382A1, “Methods for Treating Hematopoietic Neoplasms” (priority 2007, published 2009):
# Test system: leukemic cells
# Test: Comet assay for DNA damage
# Format: cell-based, human
# Conditions: after CA4P treatment
# Description: DNA damage in CA4P-incubated leukemic cells was assessed by comet assay. The concept behind this assay is based upon the ability of denatured, cleaved DNA fragments to migrate out of the cell under the influence of an electric field, whereas undamaged DNA migrates more slowly and remains within the confines of the nucleus. Evaluation of the DNA “comet” tail shape and migration pattern allows for assessment of DNA damage. Results were expressed as the percentage of cells with a comet tail in 100 randomly selected, non-overlapping cells visualized by standard light microscopy. […] Results of three experiments in duplicate are expressed as the mean of the number of cells with a comet tail (%)±SEM (*p<0.05 as compared with CA4P-untreated cells; n=3).
smiles,measurement,value
"COc1ccc(/C=C\c2cc(OC)c(OC)c(OC)c2)cc1OP(=O)(O)O [CA4P, combretastatin A-4 phosphate]",number of leukemic cells displaying a comet tail,strongly increased
